Assay results: patent US20100104644A1, “Compositions and Methods for Treating or Preventing Ophthalmic Disease” (University of Florida Research Foundation, Inc., priority 2006, published 2010)
Entries after “also recorded” stand apart in the source; their conditions may differ.

Legend:
P23H opsin = experiment: P23H yield in stable cells expressing opsin treated with compound; type: cell-based
Procedure: Stable cell lines expressing opsin protein were generated using the Flp-In T-Rex system. The stable cells were grown in DMEM high glucose media supplemented with 10% (v/v) fetal bovine serum, antibiotic/antimycotic solution, […] blasticidin and hygromycin at 37° C. in presence of 5% CO2. For all the experiments the cells were allowed to reach confluence and were induced to produce opsin with 1 μg/ml tetracycline after change of media and then compounds were added. The plates were incubated for 48 hours after which the cells were harvested.
Proteins were separated on SDS-PAGE gels and western blotted as described in Noorwez et al. (2004).

[1] = tested on: purified wild-type (WT) opsin; experiment: Opsin regeneration: pigment formation of purified WT opsin with 11-cis-retinal in the presence of compound; type: biochemical; conditions: for inhibition of pigment formation / binding of 11-cis-retinal to opsin: in vitro
[2] = tested on: purified wt (wild-type) opsin; experiment: 500 nm absorbing pigment formation on addition of compound alone to purified opsin; type: biochemical; conditions: compound added to purified WT opsin without 11-cis-retinal

Structure (SMILES)	% Increase in P23H Yield (P23H opsin; Table 2, with spread)	% Increase in P23H Yield (P23H opsin; Table 1)	also measured
Cn1cc(C(N)=O)ccc1=N [Compound 66688, 6-imino-1-methyl-1,6-dihydro-3-pyridinecarboxamine]	40 ± 9%		
CC(=O)/C=C/C1=C(C)CCCC1(C)C [β-ionone, reference compound]			inhibition of pigment formation / binding of 11-cis-retinal to opsin [1]: inhibit binding of retinal to the site; also recorded: inhibited opsin regeneration in a dose dependent manner; formation of 500 nm absorbing pigment by the compound with opsin [2]: does not form a light absorbing pigment with opsin; also recorded: does not itself form a 500 nm absorbing pigment with opsin; also recorded: no 500 nm absorbing pigment was formed
Nn1nnc2ccccc21 [Compound 114498, 1H-1,2,3-benzotriazol-1-amine]	30 ± 6%		
O=C1NC(CCO)C(=O)NC1CCO (stereo not shown) [Compound 5, 3,6-bis-(2-hydroxyethy)-piperazine-2,5-dione]	30 ± 10%	15%	
O=[PH](O)c1ccccc1 [Compound 3, phenyl-phosphinic acid]	40 ± 3%	32%	
Oc1ccccc1C=Nn1cnnc1 [Compound 121968, 4-Salicylideneamino-1,2,4-triazol]	29 ± 5%		
CC(=O)c1c(C)n[nH]c1C [Compound 1, 1-(3,5-dimethyl-1H-pyrazol-4-yl)ethanone]	30 ± 5%	31%	inhibition of pigment formation of WT opsin with 11-cis-retinal ([1]; 2 mM and 5 mM concentrations): inhibited; inhibition of pigment formation / binding of 11-cis-retinal to opsin ([1]; listed as SN 10011): inhibits the binding of 11-cis-retinal to opsin in vitro; inhibition of pigment formation / binding of 11-cis-retinal to opsin ([1]; listed as SN10011): reversibly inhibits binding of 11-cis-retinal; also recorded: significant effect on inhibition of pigment formation; formation of 500 nm absorbing pigment by the compound with opsin ([2]; listed as SN10011): No pigment was formed; also recorded: no 500 nm absorbing pigment was generated
N#Cc1ccc2c(c1)OCO2 [Compound 27009, 3,4-Methylenedioxybenzonitrile]	20 ± 5%		
Cc1cc([N+](=O)[O-])ccn1 [Compound 4, 2-methyl-4-nitro-pyridine]	25 ± 8%	24%	
N#Cc1cn(Cc2ccco2)c(=O)[nH]c1=O [Compound 2, 1-furan-2-ylmethyl-2,4-dioxo-1,2,3,4-tetrahydro-pyrimidine-5-carbonitrile]	40 ± 7%	43%	
CC(C)N(CC#N)C(C)C [Compound 6, diisopropylaminoacetonitrile]	25 ± 3%	28%	
